Results reported in US20140303092A1 (CHIMERIX, INC., priority 2011, published 2014).

How the values were obtained:
[1] = test system: VZV; test: In vitro antiviral activity in cell culture, VZV; format: cell-based, varicella-zoster virus; details: Human alphaherpesvirus 3
[2] = clinical; details: human, in vivo
Method: The pharmacokinetics of HDP-CDV (oral solution) were investigated in a dose-escalation study in healthy volunteers (Study HDP-CDV-102) in which single doses of up to 2 mg/kg and multiple doses (3 doses, each separated by 6 days) of up to 1 mg/kg were administered.

[3] = Study HDP-CDV-106: safety and PK in subjects with impaired hepatic function; format: in vivo, human
Method: Subjects with moderate hepatic impairment and matched healthy control subjects with normal hepatic function were enrolled and dosed first in Cohort 1, each receiving a single 200 mg dose of HDP-CDV under fasting conditions. The safety, tolerability and PK data from these subjects was reviewed prior to initiating dosing in subjects with severe hepatic impairment in Cohort 2. The study was conducted at four centers in the USA. Up to approximately 24 male and female subjects were planned to be enrolled in this study, including 8 subjects with moderate hepatic impairment and 8 matched healthy control subjects in Cohort 1 and 8 subjects with severe hepatic impairment in Cohort 2. The severity of hepatic impairment was assessed according to the Child-Pugh-Turcotte (CPT) score. Assessments are as follows: CPT Class B (moderate impairment) has a score of 7 to 9 points; and Class C (severe impairment) has a score of >9 points. For the purposes of this study, Cohort 2 subjects were required to have a CPT score of 10 or 11.

[4] = parameters: species or system human; details: in vivo
Description: Plasma samples were collected during the study to assess weekly trough concentrations of HDP-CDV and CDV. […] There was no evidence for increasing weekly trough CDV plasma concentrations; therefore, plasma concentrations are not presented in this document.

CCCCCCCCCCCCCCCCOCCCOP(=O)(O)COC(CO)Cn1ccc(N)nc1=O (stereo not drawn) [HDP-CDV]
EC50 [1]: 0.4 nM | Cmax and AUC versus dose [2]: increased approximately in proportion to dose | accumulation on Day 12 [2]: negligible accumulation | quantifiable in urine [2]: not quantifiable in the urine | half-life ([2]; 1 mg/kg): 27 h | time of Cmax after administration ([2]; po): 2 to 3 h | effect of hepatic impairment on percentage bound to plasma protein ([3]; human, in vivo): did not affect | need for dose adjustment in hepatic disease ([3]; moderate or severe hepatic disease): no HDP-CDV dose adjustment is warranted | weekly trough HDP-CDV concentrations [4]: near or below the lower limit of quantification
